Holding throughout (test): DTP human tumour cell line panel, 48 h
The test system of test [1] is ACHN.
For test [2], the system named is SF-539.
For test [3], the system named is RXF 393.
For test [4], the system named is MDA-N.
Test [5] concerns UACC-257.
In test [6] the test system is EKVX.
Test [7] deals with NCI/ADR-RES.
The subject of test [8] is MDA-MB-435.
For test [9], the system named is HOP-62.
Test [10] relates to SF-268.
The subject of test [11] is BT-549.
In test [12] the test system is SK-OV-3.
The test system of test [13] is T47D.
The test system of test [14] is U-251.
The subject of test [15] is SN12C.
The test system of test [16] is MOLT-4.
Test [17] deals with SNB-19.
In test [18] the test system is OVCAR-4.
In test [19] the test system is UO-31.
Test [20] concerns K562.

SMILES strings stand for the structures.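 Grown in 96-well plates, cells were treated for 48 hours with each compound at five concentrations. Insufficient inhibition: endpoint recorded as highest concentration tested. GI50: concentration for 50% inhibition of growth.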 Activity calls are given as the source filed them. Cut-off read from the data, not from the text of the source: active = GI50 up to about 1.1 µM and inactive = higher.

These results are taken from ChEMBL document CHEMBL1201862, “PubChem BioAssay data set” (2004).

A word on the GI50: it is the concentration at which growth is held to half of that of the control. `N#C/C(=C/NC(=S)c1ccncc1)C(N)=O`: the GI50 in test [1], in test [2], in test [3], in test [4], in test [5] and in [6] was > 100 µM (inactive) throughout. For the same compound, the GI50 in test [7], in test [8], in test [9], in [10], in test [11] and in [12] was > 100 µM (inactive) in each case. Also, the GI50 in test [13], in [14], in test [15], in test [16], in test [17] and in test [18] was > 100 µM (inactive) throughout. The GI50 in test [19] is > 100 µM (inactive).
Turning to `O=S(=O)(O)c1cc(Cl)c(O)c2ncc(Cl)cc12`, the GI50 was 76 µM (inactive) in [1]; 50.4 µM (inactive) in test [2]; > 100 µM (inactive) in test [3]; > 100 µM (inactive) in test [4]; > 100 µM (inactive) in test [5]; 69 µM (inactive) in test [6]. For the same compound, the GI50 was 32.8 µM (inactive) in test [7]; > 100 µM (inactive) in test [8]; > 100 µM (inactive) in test [9]; 79.4 µM (inactive) in [11]; > 100 µM (inactive) in test [13]; > 100 µM (inactive) in test [14]. The GI50 in test [15] is 64 µM (inactive); in test [16], 15.7 µM (inactive); in test [20] it was 41.6 µM (inactive); in [17], 84.7 µM (inactive); in test [18], 42.7 µM (inactive); in test [19] it was 57 µM (inactive).
Regarding `Nc1ncnc2oc(-c3cccs3)nc12`, the GI50 in test [1] is > 100 µM (inactive); in test [2] it was > 100 µM (inactive); in test [3], > 100 µM (inactive); in [4], > 100 µM (inactive); in [5], > 100 µM (inactive); in [6], 37.5 µM (inactive). The GI50 in test [7], in test [8], in test [9], in test [10], in test [11] and in test [13] was > 100 µM (inactive) in each case. For the same compound, the GI50 in test [14], in test [15], in test [20], in [17], in test [18] and in test [19] was > 100 µM (inactive) throughout.
For the compound `CC(C)(C)C1(O)C=C(O)C(=O)N1NC(=O)c1ccccc1Nc1ccccc1` (stereo not drawn), the GI50 in test [1] is 47.5 µM (inactive); in test [2], 41.4 µM (inactive); in test [3], 60.5 µM (inactive); in test [4], 62.2 µM (inactive); in [5], 24.2 µM (inactive); in test [6], 53.6 µM (inactive). The GI50 was 27.7 µM (inactive) in [7]; 40.6 µM (inactive) in test [8]; 24.7 µM (inactive) in test [10]; 28 µM (inactive) in test [11]; 25.4 µM (inactive) in test [12]; 36.1 µM (inactive) in test [13]. Moreover, the GI50 in test [14] was 18.2 µM (inactive); in test [15] it was 60.5 µM (inactive); in [16], 2.4 µM (inactive); in [20], 20.2 µM (inactive); in test [17] it was 54.8 µM (inactive); in test [18], 32.9 µM (inactive). Moreover, the GI50 in [19] was > 100 µM (inactive).
For `Cc1cccc(-c2cc(O)c3c(C)ccnc3n2)c1`, the GI50 in [1] was 0.601 µM (active); in test [2] it was 0.456 µM (active); in [3] it was 0.455 µM (active); in test [4], 0.0474 µM (active); in test [6] it was 0.935 µM (active); in test [7], 0.255 µM (active). In addition, the GI50 in test [8] is 0.0463 µM (active); in test [9] it was 0.597 µM (active); in test [10], 10 µM (inactive); in test [11], > 100 µM (inactive); in test [12], 0.53 µM (active); in [13] it was 0.826 µM (active). Moreover, the GI50 in test [14] was 0.407 µM (active); in [15], 0.564 µM (active); in test [16], 0.71 µM (active); in test [20], 0.139 µM (active); in test [17] it was 0.447 µM (active); in test [18] it was 8.41 µM (inactive).
Consider `Cc1ncc2c(=O)c3c(oc2n1)c1ccccc1n3Cc1ccccc1`, for which the GI50 is 53.5 µM (inactive) in [1]; > 100 µM (inactive) in test [2]; > 100 µM (inactive) in [3]; > 100 µM (inactive) in test [4]; > 100 µM (inactive) in [5]; > 100 µM (inactive) in test [6]. In addition, the GI50 was > 100 µM (inactive) in [7]; > 100 µM (inactive) in test [8]; 27.4 µM (inactive) in [9]; > 100 µM (inactive) in test [10]; > 100 µM (inactive) in test [11]; 7.24 µM (inactive) in test [13]. The GI50 in [14] is 75.5 µM (inactive); in [15] it was > 100 µM (inactive); in [16], > 100 µM (inactive); in test [20], > 100 µM (inactive); in test [17], > 100 µM (inactive); in [19] it was > 100 µM (inactive).
Consider `COc1ccc(N)c(C(=O)CCNC(C)=O)c1` [KINURENAMINE], for which the GI50 in test [1], in test [2], in test [3], in [4], in [5] and in test [6] was > 100 µM (inactive) each time. Moreover, the GI50 in test [7], in test [8], in test [10], in [11], in test [12] and in test [13] was > 100 µM (inactive) in each case. The GI50 in test [14], in test [15], in test [16], in test [17], in [18] and in [19] was > 100 µM (inactive) throughout.
Consider `CCOC(=O)C1C(O)CC2c3ccccc3-c3ccccc3C21` (stereo not drawn), for which the GI50 is 27.3 µM (inactive) in test [1]; 29.3 µM (inactive) in test [3]; 69 µM (inactive) in test [4]; > 100 µM (inactive) in [5]; > 100 µM (inactive) in [6]; 40.5 µM (inactive) in test [7]. For the same compound, the GI50 in test [8] was 41.8 µM (inactive); in test [9] it was 31.2 µM (inactive); in [10], 31.4 µM (inactive); in test [11] it was > 100 µM (inactive); in test [12], 21.2 µM (inactive); in test [13], > 100 µM (inactive). Also, the GI50 in test [14] is 23.8 µM (inactive); in test [15] it was > 100 µM (inactive); in test [16], > 100 µM (inactive); in [20], 96.2 µM (inactive); in test [17] it was 33.5 µM (inactive); in test [18] it was > 100 µM (inactive). For the same compound, the GI50 in test [19] is > 100 µM (inactive).
In the case of `CC(=O)/C(=C/N1C(=O)CC(=O)NC1=S)C(=O)Nc1ccccc1C`, the GI50 was 58.9 µM (inactive) in [1]; 32.3 µM (inactive) in test [2]; 78.3 µM (inactive) in test [3]; 49.2 µM (inactive) in test [4]; 80.5 µM (inactive) in test [5]; 38.5 µM (inactive) in test [6]. The GI50 in test [7] is 39.7 µM (inactive); in test [8] it was 66.8 µM (inactive); in test [9] it was 23.3 µM (inactive); in [10], 35.1 µM (inactive); in test [11], > 100 µM (inactive); in [12], > 100 µM (inactive). Also, the GI50 in test [13] is 81.3 µM (inactive); in test [14], 36 µM (inactive); in test [15], > 100 µM (inactive); in test [16], 28 µM (inactive); in test [17], > 100 µM (inactive); in test [18], 57.5 µM (inactive). Besides, the GI50 in [19] is > 100 µM (inactive).
As to `O=C(Nc1ccc(C(F)(F)F)cc1)NC(F)(F)F`, the GI50 in [1], in [2], in test [3], in test [4], in test [5] and in test [6] was > 100 µM (inactive) each time. Moreover, the GI50 in [7], in test [8], in test [10], in test [11], in test [12] and in test [13] was > 100 µM (inactive) in each case. For the same compound, the GI50 in test [14], in test [15], in [16], in [20], in [17] and in [19] was > 100 µM (inactive) each time.
Turning to `OCC1OC(n2cnc3c2NC=NC[C@H]3O)CC1O` (stereo partly drawn), the GI50 in test [1] was 400 µM (inactive); in test [3] it was 484 µM (inactive); in test [4], > 500 µM (inactive); in test [5], 407 µM (inactive); in test [6], 489 µM (inactive); in test [7] it was 462 µM (inactive). For the same compound, the GI50 in test [8] was > 500 µM (inactive); in test [9], 417 µM (inactive); in test [10], 472 µM (inactive); in test [11], > 500 µM (inactive); in test [12], 467 µM (inactive); in [13], 258 µM (inactive). The GI50 was 480 µM (inactive) in test [14]; 483 µM (inactive) in test [15]; 418 µM (inactive) in test [16]; 469 µM (inactive) in test [20]; 479 µM (inactive) in test [17]; 470 µM (inactive) in test [18]. The GI50 in test [19] is 460 µM (inactive).
